Assay results published in US20190119284A1, “ErbB Inhibitors and Uses Thereof” (The Regents of the University of California, priority 2016, published 2019).

Experiments:
wt HER2 or HER2 T798M = assay: HEK-293T cells transfected with wt HER2 or HER2 T798M; format: cell-based; details: HER2 T798M vs wt, 1 nM-10 μM
ErbB3-ICD665-1323 = target: T1, ErbB3-ICD665-1323 (Homo sapiens, UniProt P21860); assay: HER3 Autophosphorylation Assay; format: biochemical; details: purified clustered HER3 intracellular domain
T1 construct: The HER3 intracellular domain (665-1323) was concentrated on vesicles; made in house
T1 sequence (P21860 684-1342): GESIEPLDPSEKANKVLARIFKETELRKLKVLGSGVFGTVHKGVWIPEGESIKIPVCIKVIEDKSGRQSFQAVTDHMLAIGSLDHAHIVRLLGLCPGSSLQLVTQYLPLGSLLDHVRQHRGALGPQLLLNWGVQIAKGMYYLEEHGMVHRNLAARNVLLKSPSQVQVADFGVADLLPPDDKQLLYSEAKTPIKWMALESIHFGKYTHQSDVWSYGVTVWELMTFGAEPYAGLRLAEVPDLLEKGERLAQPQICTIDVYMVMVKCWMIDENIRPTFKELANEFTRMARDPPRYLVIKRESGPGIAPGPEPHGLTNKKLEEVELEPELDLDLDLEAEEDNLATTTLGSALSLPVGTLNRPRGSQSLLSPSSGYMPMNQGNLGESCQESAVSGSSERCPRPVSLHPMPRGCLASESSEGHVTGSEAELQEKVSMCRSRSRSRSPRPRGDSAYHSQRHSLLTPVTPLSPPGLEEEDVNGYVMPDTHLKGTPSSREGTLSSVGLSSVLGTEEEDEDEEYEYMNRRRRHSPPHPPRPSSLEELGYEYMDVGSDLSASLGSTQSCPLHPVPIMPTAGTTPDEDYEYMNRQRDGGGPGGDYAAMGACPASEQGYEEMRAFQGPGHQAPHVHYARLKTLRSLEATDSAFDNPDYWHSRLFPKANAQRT
Experimental: HER3 Autophosphorylation Assay. ErbB3-ICD^665-1323 wild-type expression and purification was performed exactly as previously described. To monitor the change in autophosphorylation, 1 μM ErbB3-ICD^665-1323 protein was incubated with inhibitors (varied concentrations noted in the figure) and DOGS-Ni-NTA (prepared as described in Zhang et al.[4]) in 100 mM MOPS pH 7.4, containing 200 mM NaCl, divalent cations (2 mM MnCl2 plus 5 mM MgCl2), 5% glycerol, 0.1 mM DTT and 200 μM ATP for 1 hour at 25 ° C., and the reactions were stopped by adding 50 mM EDTA and SDS-PAGE gel-loading buffer for rapid qualitative comparison of autophosphorylation by SDS-PAGE and immunoblotting with anti-phosphotyrosine (pY20) and anti-(His)5.

PRKD2 = target: T2, PRKD2 (Homo sapiens, UniProt Q9BZL6); assay: Nanosyn in vitro kinase profiling: PRKD2; format: biochemical; details: for inhibition at 1 µM: compound at 1 μM
T2 sequence (Q9BZL6 1-878): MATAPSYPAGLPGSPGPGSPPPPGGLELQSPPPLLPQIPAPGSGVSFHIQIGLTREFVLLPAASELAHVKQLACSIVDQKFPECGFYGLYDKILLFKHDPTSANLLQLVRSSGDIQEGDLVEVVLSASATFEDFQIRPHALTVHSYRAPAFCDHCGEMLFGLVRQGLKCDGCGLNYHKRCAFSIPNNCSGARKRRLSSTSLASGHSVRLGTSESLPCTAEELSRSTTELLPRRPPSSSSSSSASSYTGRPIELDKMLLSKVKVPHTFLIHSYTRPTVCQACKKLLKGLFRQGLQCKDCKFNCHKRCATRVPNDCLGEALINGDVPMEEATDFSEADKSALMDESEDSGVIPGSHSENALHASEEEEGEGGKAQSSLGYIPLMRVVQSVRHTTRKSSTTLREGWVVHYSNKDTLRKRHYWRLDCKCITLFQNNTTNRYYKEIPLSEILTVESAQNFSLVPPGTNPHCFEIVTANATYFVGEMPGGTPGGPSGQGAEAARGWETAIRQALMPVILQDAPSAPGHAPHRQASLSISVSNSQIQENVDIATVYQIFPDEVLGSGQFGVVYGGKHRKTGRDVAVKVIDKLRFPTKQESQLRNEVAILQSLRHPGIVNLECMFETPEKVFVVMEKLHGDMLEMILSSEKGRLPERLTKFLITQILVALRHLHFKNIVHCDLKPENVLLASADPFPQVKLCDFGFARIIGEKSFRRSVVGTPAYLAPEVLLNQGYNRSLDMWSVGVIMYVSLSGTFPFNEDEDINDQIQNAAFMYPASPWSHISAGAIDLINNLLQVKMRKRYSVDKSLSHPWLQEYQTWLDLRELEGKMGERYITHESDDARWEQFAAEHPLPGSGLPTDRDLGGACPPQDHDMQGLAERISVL
Experimental: (§1) This was confirmed by in vitro profiling against a panel of kinases, with compound 2 only showing potent inhibition of EGFR and Ab1 (Table 2).
(§2) In vitro Kinome Screen. In vitro profiling of compound 2 at 100 nM was conducted by Nanosyn.

DYRK1A = DYRK1A (Homo sapiens, UniProt Q13627); assay: Nanosyn in vitro kinase profiling: DYRK1A; format: biochemical; details: for inhibition at 1 µM: compound at 1 μM
Experimental: as §1, §2

TSSK1 = TSSK1 (Homo sapiens, UniProt Q9BXA7); assay: Nanosyn in vitro kinase profiling: TSSK1; format: biochemical
Sequence of TSSK1 (Q9BXA7 whole entry, species assumed): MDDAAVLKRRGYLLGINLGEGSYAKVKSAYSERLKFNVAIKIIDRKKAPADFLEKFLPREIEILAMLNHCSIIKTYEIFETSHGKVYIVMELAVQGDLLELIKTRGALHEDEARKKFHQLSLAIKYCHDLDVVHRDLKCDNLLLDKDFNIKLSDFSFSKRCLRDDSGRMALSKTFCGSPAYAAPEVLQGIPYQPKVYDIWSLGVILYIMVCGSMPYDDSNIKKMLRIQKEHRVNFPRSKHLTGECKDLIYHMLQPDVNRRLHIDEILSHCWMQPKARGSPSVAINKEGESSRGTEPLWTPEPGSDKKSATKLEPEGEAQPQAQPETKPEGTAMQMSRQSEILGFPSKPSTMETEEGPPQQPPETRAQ
Experimental: as §1, §2

BT-474 cells = assay: 72 h proliferation of BT-474 cells in the presence or absence of NRG; format: cell-based; details: BT-474, 72 h dose response +/- NRG
Experimental: FIGS. 1A-1E. NRG rescues HER2 over-expressing cancer cells from HER2 inhibitors. […] FIG 1B: Same experiment as depicted in FIG. 1A, but with the inhibitor TAK-285. FIG. 1C: The ability of NRG to rescue SK-BR-3 and BT-474 cell proliferation from HER2 inhibitors is dose dependent. Cells were treated with 1 μM of the indicated inhibitor in the presence of varying concentrations of NRG, and proliferation was read out after 72 h (mean±SD, n=3). […] FIG. 1E: Cartoon schematic of the EGFR family kinase domain asymmetric dimer. The C-terminal domain of the ‘activator’ kinase (right) interacts with the N-terminal portion of the ‘receiver’ kinase (left). This interaction stabilizes the active conformation of the receiver kinase identified by the ‘in’ conformation of the receiver kinase's α-C helix and the ordered extension of the activation loop.
FIGS. 5A-5D. […] FIG. 5A: Chemical structure of compound 3 (also referred to herein as compound 178). FIG. 5B: Proliferation curves for compound 3 against the Ba/F3 cell line panel (mean±SD, n=3). […] FIG. 5D: The same assay in FIG. 2A was performed with compound 3 in SK-BR-3 cells.

NCI-H1781 cells = assay: 72 h proliferation of NCI-H1781 cells; format: cell-based; details: NCI-H1781, 72 h
[1] = tested on: HER2/HER3 signaling in FaDu cells; assay: HER2/HER3 signaling in FaDu cells, 24 h; format: cell-based; details: dose response 24 h, compared with lapatinib
Source text: FIGS. 20A-20B. […] FIG. 20A. […] FIG. 20B.

MEK2 = MEK2 (Homo sapiens, UniProt P36507); assay: Nanosyn in vitro kinase profiling: MEK2; format: biochemical; details: compound at 1 μM
Sequence of MEK2 (P36507 whole entry, species assumed): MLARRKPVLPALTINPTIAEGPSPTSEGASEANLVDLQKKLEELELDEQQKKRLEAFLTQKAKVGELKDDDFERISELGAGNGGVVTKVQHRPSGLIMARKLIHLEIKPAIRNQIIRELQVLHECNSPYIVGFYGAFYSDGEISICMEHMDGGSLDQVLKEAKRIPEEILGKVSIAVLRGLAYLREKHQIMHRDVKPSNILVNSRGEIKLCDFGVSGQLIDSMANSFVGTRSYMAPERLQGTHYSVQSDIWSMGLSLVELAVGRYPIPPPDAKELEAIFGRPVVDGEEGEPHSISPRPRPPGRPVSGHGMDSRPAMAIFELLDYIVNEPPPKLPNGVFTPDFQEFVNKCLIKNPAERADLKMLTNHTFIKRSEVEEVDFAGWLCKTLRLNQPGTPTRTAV

JAK1 = JAK1 (Homo sapiens, UniProt P23458); assay: Nanosyn in vitro kinase profiling: JAK1; format: biochemical; details: compound at 1 μM
Sequence of JAK1 (P23458 whole entry, species assumed): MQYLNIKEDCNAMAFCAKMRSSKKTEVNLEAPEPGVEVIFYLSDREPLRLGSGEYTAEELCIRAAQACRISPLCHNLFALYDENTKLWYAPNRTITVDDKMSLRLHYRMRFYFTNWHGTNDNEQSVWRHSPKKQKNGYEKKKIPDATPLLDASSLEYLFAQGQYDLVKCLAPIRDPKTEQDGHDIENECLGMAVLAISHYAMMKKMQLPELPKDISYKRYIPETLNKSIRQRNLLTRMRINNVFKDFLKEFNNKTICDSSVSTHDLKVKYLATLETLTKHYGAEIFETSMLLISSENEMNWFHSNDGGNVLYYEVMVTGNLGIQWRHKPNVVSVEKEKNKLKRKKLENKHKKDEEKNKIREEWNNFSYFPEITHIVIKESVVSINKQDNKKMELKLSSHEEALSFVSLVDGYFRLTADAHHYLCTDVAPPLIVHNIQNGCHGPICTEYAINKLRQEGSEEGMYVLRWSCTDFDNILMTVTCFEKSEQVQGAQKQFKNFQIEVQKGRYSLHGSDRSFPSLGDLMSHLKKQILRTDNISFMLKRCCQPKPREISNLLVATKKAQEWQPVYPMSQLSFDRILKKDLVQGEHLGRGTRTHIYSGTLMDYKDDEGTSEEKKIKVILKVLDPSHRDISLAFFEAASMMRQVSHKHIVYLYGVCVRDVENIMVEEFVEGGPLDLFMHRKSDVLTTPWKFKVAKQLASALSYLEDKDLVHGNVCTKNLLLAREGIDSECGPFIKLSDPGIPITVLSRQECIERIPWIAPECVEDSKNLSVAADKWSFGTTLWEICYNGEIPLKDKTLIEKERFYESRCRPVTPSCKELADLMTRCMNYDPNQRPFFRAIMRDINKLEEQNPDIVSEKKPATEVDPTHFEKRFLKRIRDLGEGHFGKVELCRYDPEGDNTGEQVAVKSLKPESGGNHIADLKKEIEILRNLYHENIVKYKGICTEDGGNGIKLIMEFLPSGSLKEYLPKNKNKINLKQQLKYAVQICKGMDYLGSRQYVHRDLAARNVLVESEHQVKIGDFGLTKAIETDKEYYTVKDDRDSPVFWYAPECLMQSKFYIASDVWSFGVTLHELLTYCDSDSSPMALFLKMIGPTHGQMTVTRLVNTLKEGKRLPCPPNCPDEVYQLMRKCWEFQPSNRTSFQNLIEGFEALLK

MAPK1 = MAPK1 (Homo sapiens, UniProt P28482); assay: Nanosyn in vitro kinase profiling: MAPK1; format: biochemical; details: compound at 1 μM
Sequence of MAPK1 (P28482 whole entry, species assumed): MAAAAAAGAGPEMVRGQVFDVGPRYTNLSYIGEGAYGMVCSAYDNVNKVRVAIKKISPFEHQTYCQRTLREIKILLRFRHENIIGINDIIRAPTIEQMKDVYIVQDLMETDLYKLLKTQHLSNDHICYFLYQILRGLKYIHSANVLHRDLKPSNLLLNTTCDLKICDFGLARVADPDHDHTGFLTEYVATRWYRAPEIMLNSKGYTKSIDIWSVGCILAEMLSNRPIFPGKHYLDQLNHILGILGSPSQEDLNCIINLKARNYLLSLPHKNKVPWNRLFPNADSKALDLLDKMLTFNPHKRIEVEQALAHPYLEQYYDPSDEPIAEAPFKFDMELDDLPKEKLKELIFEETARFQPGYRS

[2] = target: mutationally activated forms of EGFR (Homo sapiens, UniProt P00533, DEL746-750); assay: EGFR phosphosite signaling in HCC 827 cells; format: cell-based; parameters: endogenous in cells; host or cells: HCC 827 (A1); details: concentration giving near complete inhibition
Sequence of mutationally activated forms of EGFR (P00533 with tags, fused parts or gaps DEL746-750): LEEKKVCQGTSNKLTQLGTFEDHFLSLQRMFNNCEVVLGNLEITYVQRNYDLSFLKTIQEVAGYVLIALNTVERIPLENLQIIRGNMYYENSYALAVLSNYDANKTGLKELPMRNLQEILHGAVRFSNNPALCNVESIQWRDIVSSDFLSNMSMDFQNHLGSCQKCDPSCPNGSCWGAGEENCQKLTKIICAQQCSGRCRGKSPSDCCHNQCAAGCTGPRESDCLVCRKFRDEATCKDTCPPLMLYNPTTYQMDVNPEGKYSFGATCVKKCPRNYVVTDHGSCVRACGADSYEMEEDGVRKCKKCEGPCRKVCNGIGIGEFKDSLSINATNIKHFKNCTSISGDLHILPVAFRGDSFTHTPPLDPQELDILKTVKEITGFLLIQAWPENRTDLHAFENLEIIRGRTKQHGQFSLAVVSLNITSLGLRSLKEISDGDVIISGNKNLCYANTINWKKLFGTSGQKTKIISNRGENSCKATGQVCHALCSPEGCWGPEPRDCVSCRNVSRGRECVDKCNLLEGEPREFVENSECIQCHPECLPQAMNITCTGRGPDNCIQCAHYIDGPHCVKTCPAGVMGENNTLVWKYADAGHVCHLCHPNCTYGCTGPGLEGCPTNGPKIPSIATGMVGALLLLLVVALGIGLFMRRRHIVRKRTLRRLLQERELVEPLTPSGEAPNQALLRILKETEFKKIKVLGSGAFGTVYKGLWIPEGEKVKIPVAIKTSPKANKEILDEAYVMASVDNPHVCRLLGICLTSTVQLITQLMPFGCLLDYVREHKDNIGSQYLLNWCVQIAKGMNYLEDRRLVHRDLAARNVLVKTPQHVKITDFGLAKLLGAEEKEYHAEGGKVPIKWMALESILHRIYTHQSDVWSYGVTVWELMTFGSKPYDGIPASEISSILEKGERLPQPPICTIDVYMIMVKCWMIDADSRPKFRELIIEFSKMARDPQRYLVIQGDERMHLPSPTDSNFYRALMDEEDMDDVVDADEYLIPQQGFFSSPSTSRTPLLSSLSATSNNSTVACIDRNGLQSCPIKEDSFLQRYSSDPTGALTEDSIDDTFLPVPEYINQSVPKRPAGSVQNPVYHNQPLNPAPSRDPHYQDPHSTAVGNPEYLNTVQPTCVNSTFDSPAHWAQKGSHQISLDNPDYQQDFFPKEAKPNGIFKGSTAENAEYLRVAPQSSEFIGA

[3] = tested on: HER2 mutants biased towards the active conformation (NCI-H1781 cells); assay: signaling in NCI-H1781 cells after 15 min; format: cell-based; details: NCI-H1781, dose response
[4] = tested on: HER2/HER3 signaling in SK-BR-3 cells; assay: HER2/HER3 signaling in SK-BR-3 cells (immunoblot); format: cell-based; details: serum-starved SK-BR-3 cells; drug added 15 min before NRG
Experimental: Immunoblotting. Cells were grown in 6 well plates and treated according to the indicated conditions at which point the media was aspirated, cells were washed with 1 mL of cold PBS, which was then aspirated and the plates were frozen at −80° C. The frozen cells were thawed on the plates in a buffer containing 50 mM Tris pH 7.5, 150 mM NaCl, 1 mM EDTA, and 1% Triton X-100 supplemented with 1× phosphatase (PhoSTOP, Roche) and 1× protease (complete-mini tablets, Roche) inhibitors. Lysates were scraped, transferred to Eppendorf tubes, and cleared by centrifugation at 20,000×g for 20 min at 4° C. The clarified lysates were transferred to chilled, clean tubes, and normalized for protein concentration by Bradford (Bio-Rad). […] Primary antibodies were detected using IRDye secondary antibodies (Li-Cor) according to the manufacturer's recommendations and scanned on an Odyssey imager (Li-Cor).

Row | Structure (SMILES) | effect of gatekeeper mutation on binding affinity (wt HER2 or HER2 T798M) | inhibition of HER3 auto-phosphorylation (ErbB3-ICD665-1323) | inhibition at 0.1 µM (PRKD2; compound at 100 nM) | inhibition at 1 µM (PRKD2) | inhibition at 0.1 µM (DYRK1A; compound at 100 nM) | inhibition at 1 µM (DYRK1A) | inhibition at 0.1 µM (TSSK1; compound at 100 nM) | inhibition at 1 µM (TSSK1; compound at 1 μM) | sensitivity of proliferation inhibition to NRG (BT-474 cells) | sensitivity of cell proliferation (NCI-H1781 cells) | inhibition of pHER3 and downstream signaling [1] | inhibition at 1 µM (MEK2) | inhibition at 1 µM (JAK1) | inhibition at 1 µM (MAPK1) | near complete inhibition of multiple phosphosites on EGFR [2] | binding to HER2 mutants judged by signaling after short treatment [3] | concentration sufficient to inhibit the entire RTK signaling pathway [4]
1 | COc1ccc(-c2ccco2)cc1Nc1ncnc2[nH]nc(-c3ccco3)c12 [compound 2, 3-(furan-2-yl)-N-(5-(furan-2-yl)-2-methoxyphenyl)-1H-pyrazolo[3,4-d]pyrimidin-4-amine] | reduces the binding affinity | able to inhibit | 5.46% | 26.6% | 5% | 16.7% | 0.665% | -3.06% |  |  |  |  |  |  |  |  | 
2 | COc1ccc(-c2ccoc2)cc1Nc1ncnc2[nH]cc(-c3cc[nH]n3)c12 [compound 3, N-(5-(furan-3-yl)-2-methoxyphenyl)-5-(1H-pyrazol-3-yl)-7H-pyrrolo[2,3-d]pyrimidin-4-amine] |  |  |  | 28% |  | 41% |  |  | insensitive to the presence of NRG | sensitive | better able to inhibit pHER3 and its downstream signaling pathways | 70% | 52% | -2% | less than 10 nM |  | 
3 | CS(=O)(=O)CCNCc1ccc(-c2ccc3ncnc(Nc4ccc(OCc5cccc(F)c5)c(Cl)c4)c3c2)o1 [lapatinib] |  |  |  |  |  |  |  |  |  |  |  |  |  |  |  | does not efficiently bind to HER2 mutants biased towards the active conformation | greater than 100 nM
